Series [1] concerns Colony Forming Unit-Megakaryocyte (CFU-Mk) cultures. The series is described as follows: Colony forming unit assay, CFU-Mk (Example 6). The class given is cell-based, human. Conditions: for effect of receptor antagonist on substance P-enhanced platelet colony formation: in the presence of substance P. An excerpt:
(§1) As stem cells differentiate in response to growth factors, they form a colony of cells with distinct morphologies that can be visualized using a microscope. This study examined the formation of three different progenitor cell populations, erythrocytes, platelets and granulocytes/macrophages.
(§2) Bone marrow aspirates were obtained from three healthy donors between 18 and 35 years of age following appropriate guidelines and protocols. Bone marrow mononuclear cells were isolated using a Ficoll-Hypaque density gradient, separating red blood cells from the others. Cells from each donor were processed independently and used for setting up individual experiments to assess the effects, if any, of donor variability.
Cells (1×10^5) were plated in duplicate onto 35 mm tissue culture plates for each condition tested and set up as described in Rameshwar et al. 1993, Blood. 81:2, 391-398. Erythroid and granulocyte/macrophage cultures were plated using methylcellulose and megakaryocyte cultures (platelet precursors) used a collagen-based support (StemCell Technologies, Vancouver, Canada, catalogue #04973). […] CP 99,994 (Pfizer) was used as a neurokinin-1 receptor antagonist and SR 48968 (Sanofi) was used as a neurokinin-2 receptor antagonist.
Cultures were set up with limited cytokines and growth factors which would promote differentiation of one progenitor per plate.
Each compound was dissolved in endotoxin-free water to a final concentration of 0.1 mM. After reconstitution, the solutions were aliquoted into siliconized microcentrifuge tubes and exposed to nitrogen gas, eliminating oxygen in the head space of the enclosure. All aliquots were stored at −20° C. until use and used within one month of reconstitution. See, Rameshwar, et al. 1997, J. Immunol.
Cultures were incubated at 37° C. with 5% CO2 for approximately 14 days, after which colonies were manually enumerated using a microscope. […]

For series [2], the system named is human bone marrow-derived hematopoietic cell populations. The series is described as follows: CFC differentiation and ATP proliferation assays, overall statements on the seven cell populations (Examples 4 and 5). In kind it is cell-based. The method, then:
The compound was dissolved in 1 ml of Iscove's Modified Dulbecco's Medium (IMDM) and a serial dose response prepared in single log doses so that the final dose in culture ranged from 1 nM to 1×10^−16 M. All working dilutions were performed in IMDM.
Starting with human bone marrow aspirate, the mononuclear cell (MNC) fraction was separated from the whole bone marrow using Ficoll-Paque density gradient centrifugation. […] The cell concentration was adjusted so that the final cell concentration in culture was 10,000 cells/well.
Human bone marrow MNC was dissolved in IMDM and cultured at a concentration of 10,000 cell/well in a CAMEO™-96 Master Mix (HemoGenix, Inc., Colorado Springs, Colo.). Master Mix is a HemoGenix proprietary cell culture media comprised of a serum mix (4 parts), a methyl cellulose mix (4 parts) and a growth factor mix (1 part) with the bone marrow target cells (1 part). See, Rich and Hall 2005, Toxicol. Sci. 87(2): 427-441.
Different combinations and concentrations of growth factors are used to induce differentiation of cells into specific cell types. […]
Prior to processing all 96-well plates, the total colony counts/well were manually enumerated by microscopy. The mean, standard deviation and percent coefficient of variation was calculated for all groups, transposed and plotted. The intracellular ATP (iATP) concentration was measured after manual enumeration. The output of the luminometer is non-standardized Relative Luminescence Units (RLU). […] This allowed the RLU values to be automatically calculated into standardized ATP (μM) units. For both the RLU and ATP values derived from each well, the luminometer software calculated the mean, standard deviation and percent coefficient of variation. […]

Series [3] concerns Blast Forming Unit—Erythroid (BFU-E) cultures. The series is described as follows: Colony forming unit assay, BFU-E (Example 6). In kind it is cell-based. Conditions: human bone marrow cells, about 14 days, FIG. 1; control = zero level.
Excerpt: as §1, §2
(§3) Cells (1×10^5) were plated in duplicate onto 35 mm tissue culture plates for each condition tested and set up as described in Rameshwar et al. 1993, Blood. 81:2, 391-398. Erythroid and granulocyte/macrophage cultures were plated using methylcellulose and megakaryocyte cultures (platelet precursors) used a collagen-based support (StemCell Technologies, Vancouver, Canada, catalogue #04973). […] CP 99,994 (Pfizer) was used as a neurokinin-1 receptor antagonist and SR 48968 (Sanofi) was used as a neurokinin-2 receptor antagonist. […]

For series [4], the system named is Colony Forming Unit—Erythroid (CFU-E) cultures. The series is described as follows: Colony forming unit assay, CFU-E (Example 6). The class given is cell-based. As to conditions: human bone marrow cells, about 14 days, FIG. 2.
Excerpt: as §1, §2, §3

Turning to `COc1ccccc1CN[C@H]1CCCN[C@H]1c1ccccc1` [CP-99,994], the “effect of receptor antagonist on substance P-enhanced platelet colony formation” value in series [1] is “blocks the stimulatory activity of substance P”.

Regarding `CC(C)C[C@H](NC(=O)CN(C)C(=O)[C@H](Cc1ccccc1)NC(=O)[C@H](Cc1ccccc1)NC(=O)[C@H](CCC(N)=O)NC(=O)[C@H](CCC(N)=O)NC(=O)[C@@H]1CCCN1C(=O)[C@H](CCCCN)NC(=O)[C@@H]1CCCN1C(=O)[C@@H](N)CCCNC(=N)N)C(=O)N[C@@H](CCS(C)(=O)=O)C(N)=O` [Homspera®], the “toxicity to T-CFC and B-CFC” value in series [2] (Example 4, levels tested (10^−16 M to 1 nM)) is given as “do not demonstrate toxicity at the levels tested”. For the same compound, the cytotoxicity result in series [2] (Example 4, most of populations, 14 days, 10^−16 M to 1 nM) is “apparent absence of distinct cytotoxicity”. Moreover, the “toxicity in CFC assay” value in series [2] (Example 5, three donors, seven cell populations, highest doses (1 nM)) is given as “no apparent toxicity at the highest doses”.

Regarding `CC(=O)NC1(c2ccccc2)CCN(CC[C@H](CN(C)C(=O)c2ccccc2)c2ccc(Cl)c(Cl)c2)CC1` [SR48968], the “effect of receptor antagonist on substance P-enhanced platelet colony formation” value in series [1] is on record as “showed no effect on substance P activity”.

On to RPKPQQFFGLM-NH2 [substance P], for which, in series [3], the “BFU-E colony increase from control values” is recorded as about 60%. Further, the “CFU-E colony formation enhancement from control values” in series [4] is “about 70%”. Besides, the “effective concentration for platelet precursors” value in series [1] (approximately 2-fold stimulation) is on record as 10^−8 M.

(Values after patent publication US20090156504A1, “METHODS OF TREATING BLOOD CELL DEPLETION” (ImmuneRegen Biosciences, Inc., priority 2007, published 2009).)
